Test results from US20230045199A1, “COMPOSITIONS AND METHODS FOR HEMOGLOBIN PRODUCTION” (THE CHILDREN'S HOSPITAL OF PHILADELPHIA, priority 2019, published 2023).
Where two headings read alike, the source gives them in different places.

Test system: PP6C
Assay: Western blot of PP6C and gamma-globin in primary human cells after RNP electroporation of SpCas9 with guide RNA
Assay type: cell-based
Description: FIGS. 2A-2D provide data regarding validation of PP6C as a regulator of HbF in human primary cells utilizing RNP-based electroporation of SpCas9 with guide RNA targeting PP6C. FIG. 2A depicts protein levels by Western blot of PP6C and gamma-globin with 6 independent guide RNA targeting PP6C or a non-targeting guide RNA. […] These specific guide RNAs were utilized for further primary human cell testing. FIG. 2B provides a graph of gamma globin mRNA levels in four independent biological replicates of human primary cells treated with PP6C sgRNA #1 or #3; a guide RNA targeting the BCL11A +58 enhancer (positive control), or a non-targeting guide RNA (negative control). FIG. 2C provides representative flow cytometric plots of HbF staining (top) and compiled F-cell flow cytometric staining in four independent biological replicates (bottom) in cells treated with PP6C sgRNA, BCL11A +58 sgRNA, or non-targeting sgRNA. […] FIG. 2D are representative cation-exchange high performance liquid chromatography (HPLC) tracings (top) and complied HPLC HbF+ quantitation in two independent biological replicates (bottom) in cells treated with PP6C sgRNA, BCL11A +58 sgRNA, or non-targeting sgRNA. HbF elutes as a distinct peak (grey box), followed by adult hemoglobin (HbA). Percentages are quantified as HbF percentage of total globins (HbF+HbA).
Cells were transduced with one of the six guide RNAs targeting PP6C, a guide RNA targeting BCL11A exon 2 (positive control; BCL11A is a repressor of HbF expression), or non-targeting guide RNA or untreated control (negative controls).

Row | Substance | PP6C protein level | gamma-globin protein levels | gamma-globin protein levels (listed as PP6C guide RNA #3) | gamma-globin protein levels (listed as PP6C guide RNA #1)
1 | PP6C sgRNA3: CRISPR sgRNA targeting PP6C, sequence GGAACTGCCCGGAATAACTT (SEQ ID NO: 7) (listed as DNA, chemistry not given here) | significantly depleted | significantly increased | significant induction | 
2 | PP6C sgRNA1: CRISPR sgRNA targeting PP6C, sequence GCACATCAACTAGTGCACGA (SEQ ID NO: 5) (listed as DNA, chemistry not given here) | significantly depleted | significantly increased |  | significant induction
3 | PP6C sgRNA4: CRISPR sgRNA targeting PP6C, sequence TCCTCGGGGACTGATAGCCC (SEQ ID NO: 8) (listed as DNA, chemistry not given here) | significantly depleted | significant induction |  | 
